Consider 36 molecules from publication PMC9977316, “The kidney drug transporter OAT1 regulates gut microbiome–dependent host metabolism” (JCI Insight, 2023).

Counter-ions that a name gives are not always drawn.

The target in data set [1] is T1, OAT1 (Mus musculus, UniProt Q8VC69).
T1 construct: from tissue; host or cells: living mice (kidney proximal tubule); Oat1-KO versus WT
T1 sequence (Q8VC69 1-545): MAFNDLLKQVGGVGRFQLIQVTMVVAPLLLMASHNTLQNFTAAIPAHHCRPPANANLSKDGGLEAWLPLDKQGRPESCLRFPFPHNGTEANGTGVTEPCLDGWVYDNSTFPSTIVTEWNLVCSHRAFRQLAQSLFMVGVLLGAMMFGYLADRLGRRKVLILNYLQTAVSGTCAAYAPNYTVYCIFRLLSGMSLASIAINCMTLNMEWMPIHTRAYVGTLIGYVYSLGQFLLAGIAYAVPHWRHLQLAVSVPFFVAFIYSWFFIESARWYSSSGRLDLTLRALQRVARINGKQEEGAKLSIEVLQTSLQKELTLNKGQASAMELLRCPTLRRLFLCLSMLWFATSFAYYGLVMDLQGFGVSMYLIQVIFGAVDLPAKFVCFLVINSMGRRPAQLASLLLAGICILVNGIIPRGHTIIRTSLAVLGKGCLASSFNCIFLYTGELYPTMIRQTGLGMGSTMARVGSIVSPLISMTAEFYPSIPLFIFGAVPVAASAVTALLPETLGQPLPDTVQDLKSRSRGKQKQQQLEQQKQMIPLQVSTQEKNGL
As to the kind of experiment: Serum metabolomics, effect of genotype (Oat1-KO versus WT), 2-way ANOVA. It is filed as in vivo. As to conditions: for interaction between genotype and treatment on serum level: 2-way ANOVA, loss of Oat1 x microbiome depletion. The protocol:
Adult male KO and WT mice were housed in a 12-hour light-dark cycle and allowed ad libitum access to food and water. Oat1-KO mice were generated and maintained as previously described ([49]). Feces were collected from mice weekly in sterile 2 mL centrifuge tubes, flash frozen, and stored at –80°C. Animals were sacrificed by CO2 inhalation, and blood samples were extracted from mice by cardiac puncture. Serum was extracted, and samples were flash frozen and stored at –80°C until further analysis.
Serum samples were shipped on dry ice to Metabolon Inc. for preparation and metabolomics. Per Metabolon Inc., proteins were removed from the serum and 5 fractions were generated for different mass spectrometry methods. […] Peaks were identified and associated with defined compounds based on retention time, mass/charge ratio, and MS/MS spectral data. Quantification of peaks was performed using AUC.
Scaled intensity for each metabolite was normalized to volume, and missing values were imputed with the lowest value for the compound. For all fold-change calculations, scaled intensities were averaged and compared with each other. Statistical comparisons were performed using the Python module, statsmodels (https://www.statsmodels.org/stable/index.html) and were made between groups by 2-way ANOVA following log transformation and FDR correction, with P < 0.05 being considered significant. Enrichment for each superpathway and subpathway was calculated using the number of total metabolites measured and the number of metabolites in each respective superpathway and subpathway, as previously described ([16]).

Data set [2] concerns OAT1. As to conditions: cited from earlier work; for Decreased in urine of probenecid-treated humans / Elevated in plasma of probenecid-treated humans: before vs 5 hours after oral probenecid.
[3] abbreviates: direction of serum change by loss of Oat1 and by microbiome depletion.

For `Cn1cncc1CC(O)C(=O)O` (centres unmarked) [1-methyl-5-imidazolelactate], the Status entry at OAT1 [1] (setting [3]) is listed as “Group 1”.

As to `CC(=O)N[C@@H](CCCCN(C)C)C(=O)O` [N2-acetyl,N6,N6-dimethyllysine], at OAT1 [1] (setting [3]), the Status result was “Group 3”. In the data set on OAT1 [2], the “Decreased in urine of probenecid-treated humans” value (from here on “Decreased in urine”) was “✓”.

With `O=C(O)CCc1ccccc1.O=C(O)CCc1ccccc1` [3-phenylpropionate (hydrocinnamate)], the Status result at OAT1 [1] (setting [3]) is given as “Group 4”.

Take docosahexaenoylcarnitine (C22:6)*: the “interaction between genotype and treatment on serum level” value at OAT1 [1] is recorded as “impacted by the interaction between the variables”.

As to `O=C1O[C@H]([C@@H](O)CO)C(OS(=O)(=O)O)=C1O` [ascorbic acid 3-sulfate*], the Status entry at OAT1 [1] (setting [3]) is recorded as “Group 1”.

On to `CC(=O)NCCCC[C@H](NC(C)=O)C(=O)O` [N2,N6-diacetyllysine], for which, at OAT1 [1] (setting [3]), the Status entry is listed as “Group 3”. The “Decreased in urine” value in the data set on OAT1 [2] was “✓”.

Consider `O=C(O)CCc1ccc(O)cc1` [3-(4-hydroxyphenyl)propionate], for which, on OAT1 [1] (setting [3]), the Status entry is listed as “Group 2”.

Consider `CS(=O)(=O)CC[C@H](N)C(=O)O` [methionine sulfone], for which the Status result on OAT1 [1] (setting [3]) is recorded as “Group 1”. Further, in the data set with OAT1 [2], the “Decreased in urine” value was “✓”.

3-methoxycatechol sulfate (2): the Status result at OAT1 [1] (setting [3]) was “Group 2”. The “Decreased in urine” value in the data set on OAT1 [2] is given as “✓”.

For the molecule `C=CCc1ccc(OS(=O)(=O)O)cc1` [4-allylphenol sulfate], at OAT1 [1] (setting [3]), the Status entry is given as “Group 2”. The “Decreased in urine” value in the data set on OAT1 [2] is recorded as “✓”.

Consider `O=S(=O)(O)Oc1ccccc1O` [catechol sulfate], for which, on OAT1 [1] (setting [3]), the Status result is recorded as “Group 2”. Moreover, the “Decreased in urine” value in the data set on OAT1 [2] is “✓”.

In the case of `CC(CCC[C@@H](C)[C@H]1CC[C@H]2[C@@H]3[C@H](O)CC4=CC(=O)CC[C@]4(C)[C@H]3CC[C@]12C)C(=O)O` (some centres unmarked) [7-HOCA], the Status entry on OAT1 [1] (setting [3]) is “Group 3”.

As to `O=C(O)c1c(O)cccc1O` [2,6-dihydroxybenzoic acid], the Status result at OAT1 [1] (setting [3]) is given as “Group 2”. In the data set on OAT1 [2], the “Elevated in plasma of probenecid-treated humans” value (shortened to “Elevated in plasma”) is “✓” and the “Decreased in urine” value was “✓”.

For the molecule `O=S(=O)(O)Oc1c[nH]c2ccccc12` [3-indoxyl sulfate], in the data set with OAT1 [2], the “Elevated in plasma” value is recorded as “✓”, the “plasma level in probenecid treated humans” value (“plasma level” below) is “significantly elevated in the plasma” and the “Decreased in urine” value is “✓”.

On to `Cn1cncc1C[C@H](N)C(=O)O` [3-methylhistidine], for which the Status entry on OAT1 [1] (setting [3]) was “Group 2”.

For `COc1ccc(OS(=O)(=O)O)cc1` [4-methoxyphenol sulfate], the Status entry at OAT1 [1] (setting [3]) is recorded as “Group 2”. In the data set with OAT1 [2], the “Elevated in plasma” value was “✓”, the “plasma level” value is “elevated in the plasma”, the “Decreased in urine” value was “✓” and the “urine level in probenecid treated humans” value is reported as “decreased in the urine”.

With `CC(=O)N[C@@H](CCCCNC(N)=O)C(=O)O` [N-acetylhomocitrulline], the Status result at OAT1 [1] (setting [3]) is “Group 3”. For the same molecule, the “Decreased in urine” value in the data set on OAT1 [2] was “✓”.

Take `Cc1ccc(OS(=O)(=O)O)c(N)c1` [2-amino-p-cresol sulfate]: the “interaction between genotype and treatment on serum level” value on OAT1 [1] is “impacted by the interaction between the variables”. Further, on OAT1 [1] (setting [3]), the Status result is given as “Group 2”.

For the molecule `O=C(O)Cc1cccc2cc[nH]c12` [1H-indole-7-acetic acid], the Status result at OAT1 [1] (setting [3]) is recorded as “Group 2”.

For `O=S(=O)(O)Oc1ccc(O)cc1` [hydroquinone sulfate], the Status result at OAT1 [1] (setting [3]) is “Group 2”. Also, the “Elevated in plasma” value in the data set on OAT1 [2] is listed as “✓”.

Regarding `O=C(O)CCC(=O)NCCS(=O)(=O)O` [succinoyltaurine], on OAT1 [1] (setting [3]), the Status result is listed as “Group 1”. Further, in the data set on OAT1 [2], the “Decreased in urine” value is “✓”.

Take `CN1CCC[C@H]1C(=O)O` [N-methylproline]: on OAT1 [1] (setting [3]), the Status result is on record as “Group 4”.

On to `Cc1ccc(OS(=O)(=O)O)cc1` [p-cresol sulfate], for which the Status result on OAT1 [1] (setting [3]) is listed as “Group 2”. For the same molecule, in the data set with OAT1 [2], the “Elevated in plasma” value is reported as “✓”, the “plasma level” value is listed as “significantly elevated in the plasma” and the “Decreased in urine” value is on record as “✓”.

With `OC[C@H]1OC[C@H](O)[C@@H](O)[C@@H]1O` [1,5-anhydroglucitol (1,5-AG)], the Status result on OAT1 [1] (setting [3]) is listed as “Group 1”.

For the molecule `O=C(O)CCCC(=O)C(=O)O` [2-oxoadipate], the Status result on OAT1 [1] (setting [3]) is recorded as “Group 4”. Moreover, the “Decreased in urine” value in the data set on OAT1 [2] is given as “✓”.

On to `O=C(O)CNC(=O)Cc1ccccc1` [phenylacetylglycine], for which, at OAT1 [1] (setting [3]), the Status entry is recorded as “Group 2”. For the same molecule, the “Elevated in plasma” value in the data set with OAT1 [2] is given as “✓”.

In the case of `[H]/N=C(/N)NCC(=O)O` [guanidinoacetate], the Status entry on OAT1 [1] (setting [3]) is “Group 3”.

As to `COc1cc(CC(=O)O)ccc1OS(=O)(=O)O` [homovanillate sulfate], the Status entry on OAT1 [1] (setting [3]) was “Group 2”. The “Decreased in urine” value with OAT1 [2] is on record as “✓”.

Regarding `O=C(O)Cc1c[nH]c2ccc(O)cc12` [5-Hydroxyindoleacetate], the “effect of genotype on serum level” value at OAT1 [1] (statistical analysis of the serum metabolome) is “not impacted by either variable”.

`C[N+](C)(C)CCCCC(=O)[O-]` [N,N,N-trimethyl-5-aminovalerate]: the Status entry on OAT1 [1] (setting [3]) is listed as “Group 2”.

In the case of `O=C1Cc2ccccc2N1` [indolin-2-one], the Status entry at OAT1 [1] (setting [3]) is recorded as “Group 2”. Besides, in the data set on OAT1 [2], the “Elevated in plasma” value is reported as “✓” and the “Decreased in urine” value is reported as “✓”.

As to `CC(=O)N[C@@H](CO)C(=O)O` [N-acetylserine], the Status result at OAT1 [1] (setting [3]) was “Group 4”.

As to `CC(C)C(O)(CC(=O)O)C(=O)O` (centres unmarked) [2-isopropylmalate], at OAT1 [1] (setting [3]), the Status result is recorded as “Group 4”. In the data set with OAT1 [2], the “Elevated in plasma” value is recorded as “✓”.

For the molecule `O=C(O)/C=C/c1ccccc1` [cinnamate], on OAT1 [1] (mouse, in vivo), the Status result is “Group 4”.

For the molecule `CCc1ccc(OS(=O)(=O)O)cc1` [4-ethylphenyl sulfate], the Status result at OAT1 [1] (setting [3]) is reported as “Group 2”. In addition, in the data set with OAT1 [2], the “Decreased in urine” value is “✓” and the “urine level in probenecid treated humans” value is given as “significantly decreased in the urine”.

As for `C[C@@H](C(=O)O)N(C)C` [N,N-dimethylalanine], the Status entry at OAT1 [1] (setting [3]) is “Group 1”.
